Experimental data reported in PubChem BioAssay (NCI).
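In this assay, cells in 96-well plates receive the compound at five concentrations for 48 hours. Endpoints are linearly interpolated between the surrounding concentrations. TGI denotes the concentration required for complete inhibition of growth.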

Tests used:
Test in all cases: inhibition of tumour cell growth, NCI panel, 48 h
TK-10 renal = test system: TK-10 renal
OVCAR-4 ovarian = test system: OVCAR-4 ovarian
T-47D breast = test system: T-47D breast
SF-539 CNS = test system: SF-539 CNS
MDA-MB-435 = test system: MDA-MB-435
CCRF-CEM leukemia = test system: CCRF-CEM leukemia
NCI-H23 lung = test system: NCI-H23 lung
SF-268 CNS = test system: SF-268 CNS
A549 NSCLC = test system: A549 NSCLC
NCI-H226 lung = test system: NCI-H226 lung
ACHN renal = test system: ACHN renal
NCI/ADR-RES ovarian = test system: NCI/ADR-RES ovarian
HCT-116 colon = test system: HCT-116 colon
SN12C renal = test system: SN12C renal
SR leukemia = test system: SR leukemia
UACC-62 melanoma = test system: UACC-62 melanoma
SK-MEL-2 melanoma = test system: SK-MEL-2 melanoma
OVCAR-8 ovarian = test system: OVCAR-8 ovarian
K-562 leukemia = test system: K-562 leukemia
RXF 393 renal = test system: RXF 393 renal
IGROV1 ovarian = test system: IGROV1 ovarian
LOX IMVI melanoma = test system: LOX IMVI melanoma
OVCAR-5 ovarian = test system: OVCAR-5 ovarian
MDA-MB-231 breast = test system: MDA-MB-231 breast
NCI-H460 lung = test system: NCI-H460 lung
HOP-62 NSCLC = test system: HOP-62 NSCLC
SK-MEL-5 melanoma = test system: SK-MEL-5 melanoma
EKVX NSCLC = test system: EKVX NSCLC
CAKI-1 renal = test system: CAKI-1 renal
RPMI-8226 leukemia = test system: RPMI-8226 leukemia
SW-620 colon = test system: SW-620 colon
A498 renal = test system: A498 renal
BT-549 breast = test system: BT-549 breast
HT29 colon = test system: HT29 colon
HL-60(TB) leukemia = test system: HL-60(TB) leukemia
PC-3 prostate = test system: PC-3 prostate
SNB-19 CNS = test system: SNB-19 CNS
OVCAR-3 ovarian = test system: OVCAR-3 ovarian
786-0 renal = test system: 786-0 renal
COLO 205 colon = test system: COLO 205 colon
HCT-15 colon = test system: HCT-15 colon
U251 CNS = test system: U251 CNS
SK-MEL-28 melanoma = test system: SK-MEL-28 melanoma
SK-OV-3 ovarian = test system: SK-OV-3 ovarian
MDA-N = test system: MDA-N
NCI-H522 lung = test system: NCI-H522 lung
KM12 colon = test system: KM12 colon
UO-31 renal = test system: UO-31 renal
DU-145 prostate = test system: DU-145 prostate
HS 578T breast = test system: HS 578T breast
HCC-2998 colon = test system: HCC-2998 colon
SNB-75 CNS = test system: SNB-75 CNS
M14 melanoma = test system: M14 melanoma
MALME-3M melanoma = test system: MALME-3M melanoma
HOP-92 NSCLC = test system: HOP-92 NSCLC
SF-295 CNS = test system: SF-295 CNS
MOLT-4 leukemia = test system: MOLT-4 leukemia
UACC-257 melanoma = test system: UACC-257 melanoma
MCF7 breast = test system: MCF7 breast

Work on CC(C)C(Br)CC/C(CBr)=C(\Cl)CCl (stereo not drawn) yielded a TGI (TK-10 renal) of 20.1 µM, a TGI (OVCAR-4 ovarian) of 6.48 µM and a TGI (T-47D breast) of 3.43 µM. The TGI (SF-539 CNS) was 11.4 µM, the TGI (MDA-MB-435) was 5.16 µM and the TGI (CCRF-CEM leukemia) was 0.995 µM. It also gave a TGI (NCI-H23 lung) of 12.3 µM, a TGI (SF-268 CNS) of 27.9 µM and a TGI (A549 NSCLC) of 33.3 µM. The TGI (NCI-H226 lung) was 6.97 µM, the TGI (ACHN renal) was 28.2 µM and the TGI (NCI/ADR-RES ovarian) was 16.2 µM. For the same compound, the TGI (HCT-116 colon) was 5.11 µM, the TGI (SN12C renal) was 8.5 µM and the TGI (SR leukemia) was 3.71 µM. It also gave a TGI (UACC-62 melanoma) of 7.71 µM, a TGI (SK-MEL-2 melanoma) of 4.35 µM and a TGI (OVCAR-8 ovarian) of 9.82 µM. The TGI (K-562 leukemia) was 3.03 µM, the TGI (RXF 393 renal) was 3.66 µM and the TGI (IGROV1 ovarian) was 3.64 µM. For the same compound, the TGI (LOX IMVI melanoma) was 1.08 µM, the TGI (OVCAR-5 ovarian) was 23.3 µM and the TGI (MDA-MB-231 breast) was 7.71 µM. The TGI (NCI-H460 lung) was 30.6 µM, the TGI (HOP-62 NSCLC) was 30.3 µM and the TGI (SK-MEL-5 melanoma) was 3.8 µM. For the same compound, the TGI (EKVX NSCLC) was 31.9 µM, the TGI (CAKI-1 renal) was 9.89 µM and the TGI (RPMI-8226 leukemia) was 4.49 µM. It also gave a TGI (SW-620 colon) of 3.94 µM, a TGI (A498 renal) of 35 µM and a TGI (BT-549 breast) of 3.27 µM. It also gave a TGI (HT29 colon) of 4.09 µM, a TGI (HL-60(TB) leukemia) of 3.86 µM and a TGI (PC-3 prostate) of 16.3 µM. It also gave a TGI (SNB-19 CNS) of 31.1 µM, a TGI (OVCAR-3 ovarian) of 8.21 µM and a TGI (786-0 renal) of 3.49 µM. For the same compound, the TGI (COLO 205 colon) was 8.53 µM, the TGI (HCT-15 colon) was 4.82 µM and the TGI (U251 CNS) was 17.5 µM. It also gave a TGI (SK-MEL-28 melanoma) of 10.1 µM, a TGI (SK-OV-3 ovarian) of 11.3 µM and a TGI (MDA-N) of 3.81 µM. For the same compound, the TGI (NCI-H522 lung) was 2.02 µM, the TGI (KM12 colon) was 17.9 µM and the TGI (UO-31 renal) was 15.8 µM. The TGI (DU-145 prostate) was 25.2 µM, the TGI (HS 578T breast) was 15.4 µM and the TGI (HCC-2998 colon) was 26.3 µM. It also gave a TGI (SNB-75 CNS) of 13.4 µM, a TGI (M14 melanoma) of 3.82 µM and a TGI (MALME-3M melanoma) of 15.2 µM. For the same compound, the TGI (HOP-92 NSCLC) was 6.84 µM, the TGI (SF-295 CNS) was 28.7 µM and the TGI (MOLT-4 leukemia) was 2.36 µM. The TGI (UACC-257 melanoma) was 9.52 µM and the TGI (MCF7 breast) was 19.3 µM.
With CC(C)[Si]1(C(C)C)OCC2OC(N3C(=O)NC(=O)C[C@@H]3C(O)c3ccccc3)CC2O[Si](C(C)C)(C(C)C)O1 (stereo partly drawn) the TGI (TK-10 renal) was 24 µM, the TGI (OVCAR-4 ovarian) was 14.8 µM and the TGI (T-47D breast) was 14.7 µM. For the same compound, the TGI (SF-539 CNS) was 32.4 µM, the TGI (MDA-MB-435) was 18.2 µM and the TGI (CCRF-CEM leukemia) was 8.46 µM. It also gave a TGI (NCI-H23 lung) of 21.6 µM, a TGI (SF-268 CNS) of 10.6 µM and a TGI (A549 NSCLC) of 24.1 µM. For the same compound, the TGI (NCI-H226 lung) was 8.9 µM, the TGI (ACHN renal) was 19.7 µM and the TGI (NCI/ADR-RES ovarian) was 13.4 µM. It also gave a TGI (HCT-116 colon) of 9.79 µM, a TGI (SN12C renal) of 12.2 µM and a TGI (SR leukemia) of over 19.8 µM. For the same compound, the TGI (UACC-62 melanoma) was 22.4 µM, the TGI (SK-MEL-2 melanoma) was 27.3 µM and the TGI (OVCAR-8 ovarian) was 17.3 µM. For the same compound, the TGI (K-562 leukemia) was over 30.2 µM, the TGI (RXF 393 renal) was 13.4 µM and the TGI (IGROV1 ovarian) was 17.6 µM. For the same compound, the TGI (LOX IMVI melanoma) was 10.7 µM, the TGI (OVCAR-5 ovarian) was 27.6 µM and the TGI (MDA-MB-231 breast) was 12.1 µM. For the same compound, the TGI (NCI-H460 lung) was 34.3 µM, the TGI (HOP-62 NSCLC) was 27.5 µM and the TGI (SK-MEL-5 melanoma) was 26.3 µM. It also gave a TGI (EKVX NSCLC) of 23.4 µM, a TGI (CAKI-1 renal) of 30.7 µM and a TGI (RPMI-8226 leukemia) of 12.2 µM. For the same compound, the TGI (SW-620 colon) was 9 µM, the TGI (A498 renal) was 17.7 µM and the TGI (BT-549 breast) was 33.4 µM. For the same compound, the TGI (HT29 colon) was 6.59 µM, the TGI (HL-60(TB) leukemia) was 21.6 µM and the TGI (PC-3 prostate) was 15.3 µM. For the same compound, the TGI (SNB-19 CNS) was 25.4 µM, the TGI (OVCAR-3 ovarian) was 11.4 µM and the TGI (786-0 renal) was 12.5 µM. It also gave a TGI (COLO 205 colon) of 25.8 µM, a TGI (HCT-15 colon) of 18.1 µM and a TGI (U251 CNS) of 9.06 µM. For the same compound, the TGI (SK-MEL-28 melanoma) was 12.9 µM, the TGI (SK-OV-3 ovarian) was 11.8 µM and the TGI (MDA-N) was 9.61 µM. It also gave a TGI (NCI-H522 lung) of 7.77 µM, a TGI (KM12 colon) of 7.1 µM and a TGI (UO-31 renal) of 24.8 µM. It also gave a TGI (DU-145 prostate) of 26.5 µM, a TGI (HS 578T breast) of 8.71 µM and a TGI (HCC-2998 colon) of 4.46 µM. The TGI (SNB-75 CNS) was 17.6 µM, the TGI (M14 melanoma) was 30.1 µM and the TGI (MALME-3M melanoma) was 12.8 µM. For the same compound, the TGI (HOP-92 NSCLC) was 20.4 µM, the TGI (SF-295 CNS) was 9.97 µM and the TGI (MOLT-4 leukemia) was 9.31 µM. It also gave a TGI (UACC-257 melanoma) of 16.5 µM and a TGI (MCF7 breast) of 15.2 µM.
